In assay [1] the test system is Mycosphaerella graminicola (Septoria tritici—SEPTTR). Put plainly: In vitro fungal growth inhibition, Mycosphaerella graminicola (SEPTTR). In kind it is cell-based. The following applies: Zymoseptoria tritici, read-out: SEPTTR in vitro Growth Inhibition.
Assay [2] deals with Erysiphe graminis—ERYSGT. Kind of assay: Powdery Mildew of Wheat, in vivo whole plant, 24 Hour Protectant. The note with it: for pest or weed control at 100 ppm: Erysiphe, read-out: ERYSGT in vivo 1 Day Protectant.
Assay [3] relates to Rhizoctonia solani (RHIZSO). Put plainly: microbe, parasite or virus in culture. In kind it is cell-based. The following applies: Rhizoctonia solani, read-out: RHIZSO in vitro Growth Inhibition.
Assay [4] relates to Magnaporthe grisea (Pyricularia oryzae—PYRIOR). Put plainly: microbe, parasite or virus in culture. In kind it is cell-based. The note with it: Pyricularia oryzae, read-out: PYRIOR in vitro Growth Inhibition.
Assay [5] deals with Leptosphaeria nodorum—LEPTNO. Put plainly: Glume Blotch of Wheat, in vivo whole plant, 24 Hour Protectant. The note with it: for pest or weed control at 100 ppm: Leptosphaeria, read-out: LEPTNO in vivo 1 Day Protectant.
In assay [6] the test system is Stagonospora nodorum (Leptosphaeria nodorum—LEPTNO). Kind of assay: In vitro fungal growth inhibition, Stagonospora nodorum (LEPTNO). The note with it: Leptosphaeria, read-out: LEPTNO in vitro Growth Inhibition. Format: cell-based.
For assay [7], the system named is Puccinia recondita—PUCCRT. Put plainly: Brown Rust of Wheat, in vivo whole plant, 24 Hour Protectant. The note with it: for pest or weed control at 100 ppm: Puccinia, read-out: PUCCRT in vivo 1 Day Protectant.
Assay [8] has as its system Phytophthora infestans—PHYTIN. Kind of assay: whole plant or invertebrate. In kind it is in vivo. The following applies: Phytophthora, in Solanum lycopersicum, 24 h, read-out: PHYTIN in vivo 1 Day Protectant.
The test system of assay [9] is Ustilago maydis (USTIMA). Put plainly: microbe, parasite or virus in culture. The following applies: Mycosarcoma maydis, read-out: USTIMA in vitro Growth Inhibition. In kind it is cell-based.
For assay [10], the system named is Septoria tritici—SEPTTR. Put plainly: Leaf Blotch of Wheat, in vivo whole plant, 24 Hour Protectant. The note with it: for pest or weed control at 100 ppm: Zymoseptoria tritici, 24 h, control of fungal infection vs untreated plants, read-out: SEPTTR in vivo 1 Day Protectant; for SEPTTR in vivo 1 Day Protectant: % control of fungal infection vs untreated plants.
Assay [11] relates to Phytophthora infestans (PHYTIN). Put plainly: microbe, parasite or virus in culture. In kind it is cell-based. The note with it: Phytophthora infestans, read-out: PHYTIN in vitro Growth Inhibition.
Where [12] appears, read: 100 ppm spray, wheat, 24 hour protectant, control of fungal infection vs untreated plants.
[13] abbreviates: 100 ppm spray, wheat, 24 hour protectant.
Setting [14] is: 100 ppm spray, wheat, 24 hour protectant, % control of fungal infection vs untreated plants.
[15] abbreviates: wheat plants sprayed at 100 ppm, inoculated after 24 hours, control of fungal infection vs untreated plants.
Setting [16] is: wheat plants sprayed at 100 ppm, inoculated after 24 hours.
Setting [17] is: 100 ppm spray, 24 hour protectant, wheat, control of fungal infection vs untreated plants.

The term inhibition denotes how much of the control response was suppressed.

Read-outs that look alike come from different tables or passages of the source.

Regarding `COc1ccnc(C(=O)Nc2ccc(Oc3ccc(Cl)cc3)cc2)c1O` [Compound 443], the inhibition at 25 ppm in [1] (25 ppm in growth medium) is below 80%; in [3] it was below 80%; in assay [4], below 80%; in assay [6] (25 ppm in growth medium), above 80%; in assay [9] it was below 80%; in [11], below 80%. Besides, the pest or weed control at 100 ppm in [2] (setting [12]) was below 25%; in assay [5] (setting [12]), below 25%; in [7] (setting [12]), 25 to 74%; in assay [8] it was below 25%; in assay [10] (setting [13]), below 25%.

With `COCCC(=O)Oc1c(OC)ccnc1C(=O)Nc1ccc(Sc2cccc(C(F)(F)F)c2)cc1` [Compound 712], the inhibition at 25 ppm in assay [1] (25 ppm in growth medium) was above 80%; in [3] it was below 80%; in [4] it was above 80%; in [6] (25 ppm in growth medium), above 80%; in assay [9] it was below 80%; in assay [11], below 80%. The “ERYSGT in vivo 1 Day Protectant” value in [2] (setting [14]) was “+ +”. Moreover, the pest or weed control at 100 ppm in [5] (setting [14]) is 25 to 74%; in assay [8], below 25%. Besides, the “PUCCRT in vivo 1 Day Protectant” value in assay [7] (setting [14]) is “+ +”. Besides, the “SEPTTR in vivo 1 Day Protectant” value in [10] (setting [13]) is recorded as “+ +”.

For the molecule `COc1ccnc(C(=O)N[C@H]2COC(=O)[C@H](Cc3ccccc3)[C@@H](OC(=O)/C=C(\C)CCC=C(C)C)[C@H](C)OC2=O)c1O` [Compound 396], the inhibition at 25 ppm is above 80% in assay [1] (25 ppm in growth medium); below 80% in [3]; above 80% in assay [4]; above 80% in assay [6] (25 ppm in growth medium); below 80% in assay [9]; below 80% in [11]. The pest or weed control at 100 ppm in assay [2] (setting [12]) was below 25%; in [5] (setting [12]), 25 to 74%; in [7] (setting [12]), 25 to 74%; in [8] it was below 25%; in assay [10] (setting [13]) it was 25 to 74%.

`COc1ccnc(C(=O)Nc2cccc(Oc3ccc(Cl)cc3)c2)c1O` [Compound 440]: the inhibition at 25 ppm in assay [1] (25 ppm in growth medium) is above 80%; in [3], below 80%; in assay [4], above 80%; in [6] (25 ppm in growth medium) it was above 80%; in [9], below 80%; in assay [11], below 80%. In addition, the pest or weed control at 100 ppm is below 25% in assay [2] (setting [12]), 25 to 74% in assay [7] (setting [12]), below 25% in assay [8] and 25 to 74% in assay [10] (setting [13]). Besides, the “LEPTNO in vivo 1 Day Protectant” value in [5] (setting [12]) is recorded as “+ +”.

For the molecule `COC(=O)C(COC(=O)CC(C)OC(=O)C(C)C)NC(=O)c1nccc(OC)c1OC(C)=O` (stereo not shown) [Compound 586], the inhibition at 25 ppm in assay [1] (25 ppm in the growth medium), in [3], in assay [4], in assay [6] (25 ppm in the growth medium), in [9] and in assay [11] was below 80% each time. Besides, the pest or weed control at 100 ppm in assay [2] (setting [15]) was below 25%; in [5] (setting [15]), 25 to 74%; in [7] (setting [15]) it was 25 to 74%; in [8], below 25%; in assay [10] (setting [16]), 25 to 74%.

Consider `C=C(C)C(=O)O[C@H]1[C@H](C)OC(=O)[C@@H](NC(=O)c2nccc(OC)c2O)COC(=O)[C@@H]1Cc1ccccc1` [Compound 386], for which the inhibition at 25 ppm was above 80% in assay [1] (25 ppm in growth medium); below 80% in assay [3]; below 80% in assay [4]; above 80% in assay [6] (25 ppm in growth medium); below 80% in [9]; below 80% in assay [11]. Besides, the pest or weed control at 100 ppm is 25 to 74% in assay [2] (setting [12]), 25 to 74% in [7] (setting [12]), below 25% in assay [8] and 25 to 74% in assay [10] (setting [13]). In addition, the “LEPTNO in vivo 1 Day Protectant” value in [5] (setting [12]) is recorded as “+ +”.

Consider `CSc1ccnc(C(=O)NC2CC(C)(C)CC(C)(C)C2)c1O` [Compound 477], for which the inhibition at 25 ppm in assay [1] (25 ppm in the growth medium), in [3], in assay [4], in [6] (25 ppm in the growth medium), in assay [9] and in [11] was below 80% each time. For the same molecule, the pest or weed control at 100 ppm in [2] (setting [15]) is below 25%; in [5] (setting [15]), 25 to 74%; in assay [7] (setting [15]) it was below 25%; in assay [8] it was below 25%; in assay [10] (setting [16]), 25 to 74%.

On to `COc1ccnc(C(=O)Nc2cc(C)c(OC(=O)c3ccc(C(F)(F)F)cc3)c(C)c2)c1O` [Compound 457], for which the inhibition at 25 ppm in assay [1] (25 ppm in growth medium) was below 80%; in assay [3] it was below 80%; in assay [4] it was below 80%; in [6] (25 ppm in growth medium) it was above 80%; in assay [9], below 80%; in assay [11], below 80%. The pest or weed control at 100 ppm in [2] (setting [12]) is below 25%; in [5] (setting [12]), below 25%; in [7] (setting [12]) it was below 25%; in assay [8] it was below 25%; in assay [10] (setting [13]), 25 to 74%.

As for `COc1ccnc(C(=O)N[C@H]2CO[C@@](C)(C(C)CC3=C(C)CCCC3(C)C)OC2)c1O` (stereo partly shown) [Compound 318], the inhibition at 25 ppm is above 80% in assay [1] (25 ppm in growth medium); above 80% in assay [3]; below 80% in assay [4]; above 80% in assay [6] (25 ppm in growth medium); below 80% in [9]; above 80% in [11]. The pest or weed control at 100 ppm was below 25% in assay [2] (setting [17]); 25 to 74% in assay [5] (setting [17]); 25 to 74% in [7] (setting [17]); 25 to 74% in [8]; 25 to 74% in assay [10] (100 ppm spray, 24 hour protectant, wheat).

`COc1ccnc(C(=O)N[C@H]2COC(=O)[C@H](Cc3ccccc3)[C@@H](O)[C@H](C)OC2=O)c1O` [Compound 383]: the inhibition at 25 ppm in [1] (25 ppm in growth medium), in assay [3], in [4], in assay [6] (25 ppm in growth medium), in [9] and in assay [11] was below 80% throughout. In addition, the pest or weed control at 100 ppm in assay [2] (setting [12]) is below 25%; in [5] (setting [12]), below 25%; in assay [7] (setting [12]), 25 to 74%; in assay [8] it was below 25%; in assay [10] (setting [13]), below 25%.

Take `COc1ccnc(C(=O)N[C@H]2COC(=O)[C@H](Cc3ccccc3)[C@@H](OC(=O)C(C)C)[C@H](C)OC2=O)c1OC(=O)O[C@@H]1C[C@H](C)CC[C@H]1C(C)C` [Compound 690]: the inhibition at 25 ppm in assay [1] (25 ppm in growth medium), in [3], in [4], in assay [6] (25 ppm in growth medium), in assay [9] and in assay [11] was below 80% each time. Further, the pest or weed control at 100 ppm in [2] (setting [14]) is below 25%; in [5] (setting [14]), 25 to 74%; in assay [7] (setting [14]) it was 25 to 74%; in [8], below 25%. Also, in assay [10] (setting [13]), the “SEPTTR in vivo 1 Day Protectant” value is recorded as “+ +”.
